Test system: 217524-143-R1-J4-PDC spheroids with HUVEC/MSC, viability
Experiment: Anticancer human tumor 217524-143-R1-J4-PDC patient-derived pancreatic carcinoma cell line growth inhibition [CLK]
Conditions: for IC50: curve of first compound; for viability, T/C: stronger effect = lower value
In short: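 Multi-cell-type spheroids combined patient-derived tumor cells with HUVEC endothelial cells and human mesenchymal stem cells. Paired agents were dosed in half-log steps down from about clinical Cmax, or from 10 microM where Cmax was unknown.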

[1] = second compound 0.0316 µM, first compound 0.0316 µM
[2] = second compound 0.0316 µM, first compound 0.1 µM
[3] = second compound 0.1 µM, first compound 0.0316 µM
[4] = second compound 0.1 µM, first compound 0.1 µM
[5] = second compound 0.316 µM, first compound 0.0316 µM
[6] = second compound 0.316 µM, first compound 0.1 µM
[7] = second compound 1 µM, first compound 0.0316 µM
[8] = second compound 1 µM, first compound 0.1 µM
[9] = second compound 3.16 µM, first compound 0.0316 µM
[10] = second compound 3.16 µM, first compound 0.1 µM
[11] = second compound 10 µM, first compound 0.0316 µM
[12] = second compound 10 µM, first compound 0.1 µM
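Further: spheroids exposed to agents for seven days before reading.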
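Wherever viability, T/C is given: 100% = DMSO vehicle control viability.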

CC(C)CC(NC(=O)C(Cc1ccccc1)NC(=O)c1cnccn1)B(O)O (stereo unspecified) + CN1CCN(c2cc(C(=O)Nc3cc4cc(-c5cnn(C)c5)ccc4cn3)ccn2)CC1
IC50 (second compound 0.0316 µM): 3.03 nM
IC50 (second compound 0.1 µM): 2.29 nM
IC50 (second compound 0.316 µM): < 0.949 nM
IC50 (second compound 1 µM): < 0.949 nM
IC50 (second compound 3.16 µM): < 0.949 nM
IC50 (second compound 10 µM): < 0.949 nM
viability, T/C (second compound 0.0316 µM, first compound 0.000949 µM): 89.7%
viability, T/C (second compound 0.0316 µM, first compound 0.003 µM): 49.9%
viability, T/C (second compound 0.0316 µM, first compound 0.00949 µM): 22.4%
viability, T/C (second compound 0.0316 µM, first compound 0.03 µM): 6.55%
viability, T/C (second compound 0.0316 µM, first compound 0.0949 µM): 5.49%
viability, T/C (second compound 0.0316 µM, first compound 0.3 µM): 2.12%
viability, T/C (second compound 0.1 µM, first compound 0.000949 µM): 58.3%
viability, T/C (second compound 0.1 µM, first compound 0.003 µM): 47.5%
viability, T/C (second compound 0.1 µM, first compound 0.00949 µM): 14.4%
viability, T/C (second compound 0.1 µM, first compound 0.03 µM): 5.38%
viability, T/C (second compound 0.1 µM, first compound 0.0949 µM): 3.86%
viability, T/C (second compound 0.1 µM, first compound 0.3 µM): 2.25%
viability, T/C (second compound 0.316 µM, first compound 0.000949 µM): 25%
viability, T/C (second compound 0.316 µM, first compound 0.003 µM): 24%
viability, T/C (second compound 0.316 µM, first compound 0.00949 µM): 3.44%
viability, T/C (second compound 0.316 µM, first compound 0.03 µM): 1.85%
viability, T/C (second compound 0.316 µM, first compound 0.0949 µM): 1.33%
viability, T/C (second compound 0.316 µM, first compound 0.3 µM): 0.89%
viability, T/C (second compound 1 µM, first compound 0.000949 µM): 1.64%
viability, T/C (second compound 1 µM, first compound 0.003 µM): 0.62%
viability, T/C (second compound 1 µM, first compound 0.00949 µM): 0.77%
viability, T/C (second compound 1 µM, first compound 0.03 µM): 0.46%
viability, T/C (second compound 1 µM, first compound 0.0949 µM): 0.4%
viability, T/C (second compound 1 µM, first compound 0.3 µM): 0.42%
viability, T/C (second compound 3.16 µM, first compound 0.000949 µM): 0.67%
viability, T/C (second compound 3.16 µM, first compound 0.003 µM): 0.98%
viability, T/C (second compound 3.16 µM, first compound 0.00949 µM): 2.38%
viability, T/C (second compound 3.16 µM, first compound 0.03 µM): 1.54%
viability, T/C (second compound 3.16 µM, first compound 0.0949 µM): 0.63%
viability, T/C (second compound 3.16 µM, first compound 0.3 µM): 0.66%
viability, T/C (second compound 10 µM, first compound 0.000949 µM): 0.3%
viability, T/C (second compound 10 µM, first compound 0.003 µM): 0.19%
viability, T/C (second compound 10 µM, first compound 0.00949 µM): 0.47%
viability, T/C (second compound 10 µM, first compound 0.03 µM): 0.32%
viability, T/C (second compound 10 µM, first compound 0.0949 µM): 0.23%
viability, T/C (second compound 10 µM, first compound 0.3 µM): 0.22%

Cn1ncnc1[C@H]1c2n[nH]c(=O)c3cc(F)cc(c23)N[C@@H]1c1ccc(F)cc1 + CN1CCN(c2cc(C(=O)Nc3cc4cc(-c5cnn(C)c5)ccc4cn3)ccn2)CC1
IC50 (second compound 0.0316 µM): > 100 nM
IC50 (second compound 0.1 µM): 1.71 nM
IC50 (second compound 0.316 µM): < 0.316 nM
IC50 (second compound 1 µM): < 0.316 nM
IC50 (second compound 3.16 µM): < 0.316 nM
IC50 (second compound 10 µM): < 0.316 nM
viability, T/C (second compound 0.0316 µM, first compound 0.000316 µM): 80.5%
viability, T/C (second compound 0.0316 µM, first compound 0.001 µM): 71%
viability, T/C (second compound 0.0316 µM, first compound 0.00316 µM): 61.8%
viability, T/C (second compound 0.0316 µM, first compound 0.01 µM): 65.4%
viability, T/C [1]: 84.7%
viability, T/C [2]: 60.3%
viability, T/C (second compound 0.1 µM, first compound 0.000316 µM): 54.1%
viability, T/C (second compound 0.1 µM, first compound 0.001 µM): 48.5%
viability, T/C (second compound 0.1 µM, first compound 0.00316 µM): 50.8%
viability, T/C (second compound 0.1 µM, first compound 0.01 µM): 43.5%
viability, T/C [3]: 50.1%
viability, T/C [4]: 42.8%
viability, T/C (second compound 0.316 µM, first compound 0.000316 µM): 21.2%
viability, T/C (second compound 0.316 µM, first compound 0.001 µM): 23.4%
viability, T/C (second compound 0.316 µM, first compound 0.00316 µM): 18.8%
viability, T/C (second compound 0.316 µM, first compound 0.01 µM): 17.7%
viability, T/C [5]: 18.8%
viability, T/C [6]: 17.2%
viability, T/C (second compound 1 µM, first compound 0.000316 µM): 1.28%
viability, T/C (second compound 1 µM, first compound 0.001 µM): 1.4%
viability, T/C (second compound 1 µM, first compound 0.00316 µM): 1.52%
viability, T/C (second compound 1 µM, first compound 0.01 µM): 1.16%
viability, T/C [7]: 1.67%
viability, T/C [8]: 1.12%
viability, T/C (second compound 3.16 µM, first compound 0.000316 µM): 0.67%
viability, T/C (second compound 3.16 µM, first compound 0.001 µM): 0.66%
viability, T/C (second compound 3.16 µM, first compound 0.00316 µM): 0.75%
viability, T/C (second compound 3.16 µM, first compound 0.01 µM): 0.62%
viability, T/C [9]: 0.71%
viability, T/C [10]: 0.48%
viability, T/C (second compound 10 µM, first compound 0.000316 µM): 0.16%
viability, T/C (second compound 10 µM, first compound 0.001 µM): 0.26%
viability, T/C (second compound 10 µM, first compound 0.00316 µM): 0.15%
viability, T/C (second compound 10 µM, first compound 0.01 µM): 0.25%
viability, T/C [11]: 0.18%
viability, T/C [12]: 0.17%

O=C(c1cc(Cc2n[nH]c(=O)c3ccccc23)ccc1F)N1CCN(C(=O)C2CC2)CC1 + CN1CCN(c2cc(C(=O)Nc3cc4cc(-c5cnn(C)c5)ccc4cn3)ccn2)CC1
IC50 (second compound 0.0316 µM): > 10000 nM
IC50 (second compound 0.1 µM): 537 nM
IC50 (second compound 0.316 µM): < 31.6 nM
IC50 (second compound 1 µM): < 31.6 nM
IC50 (second compound 3.16 µM): < 31.6 nM
IC50 (second compound 10 µM): < 31.6 nM
viability, T/C [1]: 76.5%
viability, T/C [2]: 91.6%
viability, T/C (second compound 0.0316 µM, first compound 0.316 µM): 71.2%
viability, T/C (second compound 0.0316 µM, first compound 1 µM): 90.3%
viability, T/C (second compound 0.0316 µM, first compound 3.16 µM): 68.5%
viability, T/C (second compound 0.0316 µM, first compound 10 µM): 64.3%
viability, T/C [3]: 51.5%
viability, T/C [4]: 46.6%
viability, T/C (second compound 0.1 µM, first compound 0.316 µM): 49.7%
viability, T/C (second compound 0.1 µM, first compound 1 µM): 58.5%
viability, T/C (second compound 0.1 µM, first compound 3.16 µM): 49.8%
viability, T/C (second compound 0.1 µM, first compound 10 µM): 43.5%
viability, T/C [5]: 24.3%
viability, T/C [6]: 22.4%
viability, T/C (second compound 0.316 µM, first compound 0.316 µM): 20%
viability, T/C (second compound 0.316 µM, first compound 1 µM): 18%
viability, T/C (second compound 0.316 µM, first compound 3.16 µM): 21.4%
viability, T/C (second compound 0.316 µM, first compound 10 µM): 17.5%
viability, T/C [7]: 2.03%
viability, T/C [8]: 1.38%
viability, T/C (second compound 1 µM, first compound 0.316 µM): 1.73%
viability, T/C (second compound 1 µM, first compound 1 µM): 1.56%
viability, T/C (second compound 1 µM, first compound 3.16 µM): 1.8%
viability, T/C (second compound 1 µM, first compound 10 µM): 2%
viability, T/C [9]: 0.89%
viability, T/C [10]: 1.08%
viability, T/C (second compound 3.16 µM, first compound 0.316 µM): 0.76%
viability, T/C (second compound 3.16 µM, first compound 1 µM): 1.05%
viability, T/C (second compound 3.16 µM, first compound 3.16 µM): 0.74%
viability, T/C (second compound 3.16 µM, first compound 10 µM): 0.87%
viability, T/C [11]: 0.16%
viability, T/C [12]: 0.22%
viability, T/C (second compound 10 µM, first compound 0.316 µM): 0.23%
viability, T/C (second compound 10 µM, first compound 1 µM): 0.22%
viability, T/C (second compound 10 µM, first compound 3.16 µM): 0.3%
viability, T/C (second compound 10 µM, first compound 10 µM): 0.31%

Source: PubChem BioAssay AID2060624 (Molecular Pharmacology Branch, DTP, NCI, 2025)
